Patent US20140031217A1, “HERBICIDAL COMPOSITIONS COMPRISING 4-AMINO-3-CHLORO-5-FLUORO-6-(4-CHLORO-2-FLUORO-3-METHOXYPHENYL)PYRIDINE-2-CARBOXYLIC ACID OR A DERIVATIVE THEREOF AND AUXIN TRANSPORT INHIBITORS” (DOW AGROSCIENCES LLC, priority 2012, published 2014)

How the values were obtained:
[1] = test system: ECHCG; experiment: In-water applied (paddy) greenhouse weed control, ECHCG; assay type: in vivo, Echinochloa crusgalli (L.) Beauv.
Protocol: (§1) Weed seeds or nutlets of the desired test plant species were planted in puddled soil (mud) prepared by mixing a shredded, non-sterilized mineral soil (50.5 percent silt, 25.5 percent clay, and 24 percent sand, with a pH of about 7.6 and an organic matter content of about 2.9 percent) and water at a 1:1 volumetric ratio. The prepared mud was dispensed in 365 mL aliquots into 16-ounce (oz.) non-perforated plastic pots with a surface area of 86.59 square centimeters (cm^2) leaving a headspace of 3 centimeters (cm) in each pot. Mud was allowed to dry overnight prior to planting or transplanting. Rice seeds were planted in Sun Gro MetroMix® 306 planting mixture, which typically has a pH of 6.0 to 6.8 and an organic matter content of about 30 percent, in plastic plug trays. Seedlings at the second or third leaf stage of growth were transplanted into 840 mL of mud contained in 32-oz. non-perforated plastic pots with a surface area of 86.59 cm^2 4 days prior to herbicide application. The paddy was created by filling the headspace of the pots with 2.5 to 3 cm of water. When required to ensure good germination and healthy plants, a fungicide treatment and/or other chemical or physical treatment was applied. The plants were grown for 4-22 days in a greenhouse with an approximate 14 h photoperiod which was maintained at about 29′C during the day and 26° C. during the night. Nutrients were added as Osmocote® (19:6:12, N:P:K+minor nutrients) at 2 g per 16-oz. pot and 4 g per 960-mL 32-oz. pot. Water was added on a regular basis to maintain the paddy flood, and supplemental lighting was provided with overhead metal halide 1000-Watt lamps as necessary. The plants were employed for testing when they reached the second or third true leaf stage.
(§2) Treatments consisted of the acid or esters of 4-amino-3-chloro-5-fluoro-6-(4-chloro-2-fluoro-3-methoxy-phenyl)pyridine-2-carboxylic acid (compound A) each formulated as an SC and various herbicidal components alone and in combination. Forms of compound A were applied on an acid equivalent basis.
(§3) Other herbicidal components were applied on an active ingredient basis and included auxin transport inhibiting (ATI) herbicides chlorflurenol-methyl (technical material), chlorflurenol (technical material), diflufenzopyr (technical material), dilfufenzopyr sodium (technical material), flurenol-methyl (technical material,) and naptalam (technical material).
(§4) Treatment requirements for each compound or herbicidal component were calculated based upon the rates being tested, the concentration of active ingredient or acid equivalent in the formulation, an application volume of 2 mL per component per pot, and an application area of 86.59 cm^2 per pot.
(§5) For formulated compounds, a measured amount was placed in an individual 100 or 200 mL glass vial and was dissolved in a volume of 1.25% (v/v) Agri-Dex® crop oil concentrate to obtain application solutions.
(§6) For technical grade compounds, a weighed amount was placed in an individual 100 to 200 mL glass vial and was dissolved in a volume of acetone to obtain concentrated stock solutions. […] The concentrated stock solutions obtained were diluted with an equivalent volume of an aqueous mixture containing 2.5% (v/v) crop oil concentrate so that the final application solutions contained 1.25% (v/v) crop oil concentrate.
(§7) Applications were made by injecting with a pipetter appropriate amounts of the application solutions, individually and sequentially, into the aqueous layer of the paddy. Control plants were treated in the same manner with the solvent blank. Applications were made so that all treated plant material received the same concentrations of acetone and crop oil concentrate.
(§8) The treated plants and control plants were placed in a greenhouse as described above and water was added as needed to maintain a paddy flood. […]

[2] = test system: LEFCH; experiment: In-water applied (paddy) greenhouse weed control, LEFCH; assay type: in vivo, Leptochloa chinensis (L.) Nees; conditions: 20 DAA
Protocol: as §1, §2, §3, §4, §5, §6, §7, §8

Row | Compound | Visual Weed Control (%) Obs ([1]; 20 DAA, 17.5 gae/ha) | Visual Weed Control (%) Obs ([1]; 20 DAA, 35 gae/ha) | Visual Weed Control (%) Obs ([1]; 22 DAA, 8.75 gae/ha) | Visual Weed Control (%) Obs ([1]; 22 DAA, 17.5 gae/ha) | Visual Weed Control (%) Obs ([1]; 22 DAA, 35 gae/ha) | Visual Weed Control (%) Obs ([2]; 8.75 gae/ha) | Visual Weed Control (%) Obs ([2]; 17.5 gae/ha) | Visual Weed Control (%) Obs ([2]; 35 gae/ha) | Visual Weed Control (%) Obs ([1]; 19 DAA, 8 gae/ha) | Visual Weed Control (%) Obs ([1]; 19 DAA, 16 gae/ha) | Visual Weed Control (%) Obs ([1]; 19 DAA, 32 gae/ha) | Visual Weed Control (%) Obs ([1]; 20 DAA, 4.38 gae/ha) | Visual Weed Control (%) Obs ([1]; 22 DAA, 4.38 gae/ha) | Visual Weed Control (%) Obs ([2]; 4.38 gae/ha)
1 | COc1c(Cl)ccc(-c2nc(C(=O)O)c(Cl)c(N)c2F)c1F [Compound A Acid, 4-amino-3-chloro-6-(4-chloro-2-fluoro-3-methoxyphenyl)-5-fluoropyridine-2-carboxylic acid] | 50% | 95% | 0% | 15% | 15% | 20% | 0% | 30% | – | – | – | – | – | –
2 | COc1c(Cl)ccc(-c2nc(C(=O)OCc3ccccc3)c(Cl)c(N)c2F)c1F [Compound A Benzyl Ester] | – | – | 25% | 60% | – | 20% | 30% | – | 30% | 20% | 40% | 40% | 10% | 0%
